In ChEMBL document CHEMBL1201862, “PubChem BioAssay data set” (2004):
“And” between values parts separate entries of the source, which are not always exact repeats. Identical values can stand only once.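 Where inhibition never reached the appropriate level, the endpoint shown equals the highest concentration tested. Otherwise, values were interpolated linearly from a five-concentration, 48-hour dose response in 96-well plates. At the GI50, growth is halved.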 The source made the active and inactive calls. Cut-off read from the data, not from the text of the source: active = GI50 up to about 1.1 µM and inactive = higher.

Key:
Experiment in all cases: NCI-60 cell line screen, 48 h
UO-31 = tested on: UO-31
EKVX = tested on: EKVX
KM-20L2 = tested on: KM-20L2
DLD-1 = tested on: DLD-1
Malme-3M = tested on: Malme-3M
HCT-15 = tested on: HCT-15
SNB-75 = tested on: SNB-75
LXFL 529 = tested on: LXFL 529
SNB-78 = tested on: SNB-78
ACHN = tested on: ACHN
NCI-H226 = tested on: NCI-H226
M19-MEL = tested on: M19-MEL
OVCAR-3 = tested on: OVCAR-3
UACC-62 = tested on: UACC-62
SN12C = tested on: SN12C
TK-10 = tested on: TK-10
SK-MEL-5 = tested on: SK-MEL-5
SF-295 = tested on: SF-295
A498 = tested on: A498
NCI-H23 = tested on: NCI-H23
HL-60 = tested on: HL-60
RPMI-8226 = tested on: RPMI-8226
HOP-62 = tested on: HOP-62
OVCAR-5 = tested on: OVCAR-5
SW-620 = tested on: SW-620
COLO 205 = tested on: COLO 205
RXF 631 = tested on: RXF 631
SF-268 = tested on: SF-268
NCI-H522 = tested on: NCI-H522
KM12 = tested on: KM12
OVCAR-4 = tested on: OVCAR-4
NCI-H460 = tested on: NCI-H460
CCRF-CEM = tested on: CCRF-CEM
HT-29 = tested on: HT-29
SK-MEL-28 = tested on: SK-MEL-28
HCC 2998 = tested on: HCC 2998
DMS-114 = tested on: DMS-114
SF-539 = tested on: SF-539
SNB-19 = tested on: SNB-19
UACC-257 = tested on: UACC-257
K562 = tested on: K562
HOP-18 = tested on: HOP-18
CAKI-1 = tested on: CAKI-1
DMS-273 = tested on: DMS-273
A549 = tested on: A549
OVCAR-8 = tested on: OVCAR-8
SK-OV-3 = tested on: SK-OV-3
HCT-116 = tested on: HCT-116
IGROV-1 = tested on: IGROV-1
HOP-92 = tested on: HOP-92
786-0 = tested on: 786-0
U-251 = tested on: U-251
M14 = tested on: M14
XF498 = tested on: XF498
NCI/ADR-RES = tested on: NCI/ADR-RES
DU-145 = tested on: DU-145
BT-549 = tested on: BT-549
T47D = tested on: T47D
MDA-N = tested on: MDA-N
MDA-MB-435 = tested on: MDA-MB-435

SMILES: O=C(/C=C/c1ccc(Cl)c(Cl)c1)c1cccc2ccccc12
- GI50 (UO-31): 19.6 µM (inactive)
- GI50 (EKVX): 18.4 µM (inactive)
- GI50 (KM-20L2): 5.22 µM (inactive)
- GI50 (DLD-1): 2.49 µM (inactive)
- GI50 (Malme-3M): 18.4 µM (inactive)
- GI50 (HCT-15): 2.54 µM
- GI50 (SNB-75): 3.51 µM (inactive)
- GI50 (LXFL 529): 2.28 µM (inactive)
- GI50 (SNB-78): 11.4 µM (inactive)
- GI50 (ACHN): 16.4 µM (inactive)
- GI50 (NCI-H226): 14.4 µM (inactive)
- GI50 (M19-MEL): 11.7 µM (inactive)
- GI50 (OVCAR-3): 6.32 µM (inactive)
- GI50 (UACC-62): 12.9 µM (inactive)
- GI50 (SN12C): 16.9 µM (inactive)
- GI50 (TK-10): 16.8 µM (inactive)
- GI50 (SK-MEL-5): 19.1 µM (inactive)
- GI50 (SF-295): 11.4 µM (inactive)
- GI50 (A498): 22.5 µM (inactive)
- GI50 (NCI-H23): 8.17 µM (inactive)
- GI50 (HL-60): 2.07 µM (inactive)
- GI50 (RPMI-8226): 2.29 µM (inactive)
- GI50 (HOP-62): 17 µM (inactive)
- GI50 (OVCAR-5): 13.8 µM (inactive)
- GI50 (SW-620): 1.71 µM (inactive)
- GI50 (COLO 205): 12.3 µM (inactive)
- GI50 (RXF 631): 17 µM (inactive)
- GI50 (SF-268): 4.52 µM (inactive)
- GI50 (NCI-H522): 2.97 µM (inactive)
- GI50 (KM12): 4.4 µM (inactive)
- GI50 (OVCAR-4): 7.64 µM (inactive)
- GI50 (NCI-H460): 5.81 µM (inactive)
- GI50 (CCRF-CEM): 2.53 µM (inactive)
- GI50 (HT-29): 3.59 µM (inactive)
- GI50 (SK-MEL-28): 17.8 µM (inactive)
- GI50 (HCC 2998): 10.4 µM (inactive)
- GI50 (DMS-114): 2.3 µM (inactive)
- GI50 (SF-539): 2.96 µM (inactive)
- GI50 (SNB-19): 6.85 µM (inactive)
- GI50 (UACC-257): 15.9 µM (inactive)
- GI50 (K562): 3.17 µM (inactive)
- GI50 (HOP-18): 17.3 µM (inactive)
- GI50 (CAKI-1): 7.36 µM (inactive)
- GI50 (DMS-273): 4.05 µM (inactive)
- GI50 (A549): 15.7 µM (inactive)
- GI50 (OVCAR-8): 2.16 µM (inactive)
- GI50 (SK-OV-3): 20.3 µM (inactive)
- GI50 (HCT-116): 3.23 µM (inactive)
- GI50 (IGROV-1): 11.7 µM (inactive)
- GI50 (HOP-92): 16.8 µM (inactive)
- GI50 (786-0): 3.4 µM (inactive)
- GI50 (U-251): 2.74 µM (inactive)
- GI50 (M14): 17.1 µM (inactive)

SMILES: O=C1C(CN(Cc2ccccc2)Cc2ccccc2)CCCC1CN(Cc1ccccc1)Cc1ccccc1 (centres undefined)
- GI50 (NCI-H226): > 68.7 µM (inactive) and 52.1 µM (inactive)
- GI50 (XF498): 15.1 µM (inactive)
- GI50 (SK-MEL-5): > 42.5 µM (inactive) and 66.8 µM (inactive)
- GI50 (SF-295): 44.9 µM (inactive) and 35.9 µM (inactive)
- GI50 (NCI/ADR-RES): > 100 µM (inactive) and > 89.1 µM (inactive)
- GI50 (A498): > 78.9 µM (inactive) and 41.5 µM (inactive)
- GI50 (HOP-62): > 62.1 µM (inactive)
- GI50 (OVCAR-5): 34.8 µM (inactive) and > 65.3 µM (inactive)
- GI50 (DU-145): > 100 µM (inactive)
- GI50 (RXF 631): > 100 µM (inactive)
- GI50 (NCI-H460): > 87.3 µM (inactive) and 43.9 µM (inactive)
- GI50 (BT-549): > 100 µM (inactive) and > 79.8 µM (inactive)
- GI50 (HCC 2998): > 53.2 µM (inactive) and > 69.7 µM (inactive)
- GI50 (SNB-19): > 57 µM (inactive)
- GI50 (A549): > 54.5 µM (inactive)
- GI50 (SK-OV-3): > 61.1 µM (inactive) and 44.5 µM (inactive)
- GI50 (IGROV-1): 69.5 µM (inactive) and > 45.7 µM (inactive)
- GI50 (HOP-92): 16.7 µM (inactive) and 27.3 µM (inactive)
- GI50 (T47D): > 100 µM (inactive)
- GI50 (MDA-N): > 76 µM (inactive)
- GI50 (MDA-MB-435): > 100 µM (inactive) and > 92.3 µM (inactive)
